Read-outs that look alike come from different tables or passages of the source.
Key:
[1] = system: Nrf2 / ARE-dependent luciferase in AREc32 reporter cell line; test: AREc32 luciferase reporter activation (Nrf2 induction); format: cell-based, human; conditions: for EC (2-fold): Homo sapiens, Arec32; for Relative Avg AREc32 EC2X Relative to RTA402 (fold): ratio to RTA402
How it was run: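 EC2X is the concentration raising luminescence 2-fold above DMSO-treated cells, from a nonlinear-regression dose–response fit. Compounds (0.03–1000 nM) were applied for nineteen hours, starting one day after seeding 20,000 reporter cells per well. Luciferase was read with One-Glo reagent.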

[2] = system: IFNγ-induced NO production in RAW 264.7 cells; test: Nitric Oxide Suppression Assay (IFNγ-induced NO, Griess nitrite readout); format: cell-based, mouse; conditions: for IC50: Mus musculus; for Avg NO IC50 Relative to RTA402 (fold): Table 2, ratio to RTA402
How it was run: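 RAW 264.7 mouse macrophages in RPMI 1640 with 0.5% FBS were pretreated 2 h with compound (0.1% DMSO final), then stimulated with 20 ng/mL IFNγ for 24 h at 37° C. Supernatant nitrite was read by Griess absorbance at 525 nm against a nitrite standard curve, normalized to DMSO-IFNγ wells; IC50 from curve fit. Viability by WST-1.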

[3] = Table 3, oleanolic acid derivative analogs, read-out: Avg ARE EC-2X
[4] = RAW264.7, Table 3, oleanolic acid derivative analogs, read-out: Avg NO IC50
[5] = Table 2, concentration increasing luminescence 2-fold above vehicle, 19 h treatment, read-out: Avg AREc32 EC2X (nM) (Mean ± SD)
[6] = RAW264.7, Table 2, RAW 264.7 cells, 2 h pretreatment, 20 ng/mL interferon gamma 24 h, read-out: Avg NO IC50 (nM) (Mean ± SD)
[7] = Table 3, ursolic acid derivatives, read-out: Avg ARE EC-2X (nM) (Mean ± SD)
[8] = RAW264.7, Table 3, ursolic acid derivatives, read-out: Avg NO IC50 (nM) (Mean ± SD)

Structure (SMILES): CC1(C)CC[C@]2(CO)CC[C@]3(C)[C@H](C(=O)C=C4[C@@]5(C)C=C(C#N)C(=O)C(C)(C)[C@@H]5CC[C@]43C)[C@@H]2C1 [CC13, reference compound]
- EC (2-fold) [1, 3]: 8.82 nM
- IC50 [2, 4]: 0.5 nM

Structure (SMILES): CC1(C)CC[C@]2(CNC(=O)C3CC3)CC[C@]3(C)[C@H](C(=O)C=C4[C@@]5(C)C=C(C#N)C(=O)C(C)(C)[C@@H]5CC[C@]43C)[C@@H]2C1 [CC19, reference compound]
- EC (2-fold) [1, 3]: 3.22 nM
- IC50 [2, 4]: 0.5 nM

Structure (SMILES): C[C@@H]1[C@H]2[C@H]3C(=O)C=C4[C@@]5(C)C6O[C@@]6(C#N)C(=O)C(C)(C)[C@@H]5CC[C@@]4(C)[C@]3(C)CC[C@@]2(CNC(=O)C2CC2)CC[C@H]1C (stereo partly shown) [Compound T98]
- EC (2-fold) [1, 5]: 6.85 ± 0.51 nM
- Relative Avg AREc32 EC2X Relative to RTA402 (fold) ([1]; Table 2): 0.574 ± 0.052 fold
- IC50 [2, 6]: 15.2 ± 4.3 nM
- Avg NO IC50 Relative to RTA402 (fold) [2]: 4.45 ± 1.25 fold

Structure (SMILES): CC(=O)NC[C@]12CC[C@@H](C)[C@H](C)[C@H]1[C@H]1C(=O)C=C3[C@@]4(C)C=C(C#N)C(=O)C(C)(C)[C@@H]4CC[C@@]3(C)[C@]1(C)CC2 [Compound T22]
- EC (2-fold) [1, 5]: 2.99 ± 1.62 nM
- Relative Avg AREc32 EC2X Relative to RTA402 (fold) ([1]; Table 2): 0.244 ± 0.080 fold
- IC50 [2, 6]: 3.58 ± 2.16 nM
- Avg NO IC50 Relative to RTA402 (fold) [2]: 0.94 ± 0.14 fold

Structure (SMILES): C[C@@H]1[C@H]2[C@H]3C(=O)C=C4[C@@]5(C)C6O[C@@]6(C#N)C(=O)C(C)(C)[C@@H]5CC[C@@]4(C)[C@]3(C)CC[C@@]2(NC(=O)C(C)(F)F)CC[C@H]1C (stereo partly shown) [Compound T100]
- EC (2-fold) [1, 5]: 29.4 ± 3.69 nM
- Relative Avg AREc32 EC2X Relative to RTA402 (fold) ([1]; Table 2): 2.87 ± 0.59 fold
- IC50 [2, 6]: 60.6 ± 0.9 nM
- Avg NO IC50 Relative to RTA402 (fold) [2]: 28.1 ± 9.62 fold

Structure (SMILES): CC1(C)CC[C@]2(Cn3cncn3)CC[C@]3(C)[C@H](C(=O)C=C4[C@@]5(C)C=C(C#N)C(=O)C(C)(C)[C@@H]5CC[C@]43C)[C@@H]2C1 [CC47, reference compound]
- EC (2-fold) [1, 3]: 10.7 nM
- IC50 [2, 4]: 1.2 nM

Structure (SMILES): Cc1noc([C@]23CC[C@@H](C)[C@H](C)[C@H]2[C@H]2C(=O)C=C4[C@@]5(C)C=C(C#N)C(=O)C(C)(C)[C@@H]5CC[C@@]4(C)[C@]2(C)CC3)n1 [Compound T1]
- EC (2-fold) [1, 5]: 8.44 ± 1.56 nM
- Relative Avg AREc32 EC2X Relative to RTA402 (fold) ([1]; Table 2): 0.744 ± 0.121 fold
- IC50 [2, 6]: 3.76 ± 1.35 nM
- Avg NO IC50 Relative to RTA402 (fold) [2]: 2.53 ± 0.74 fold

Structure (SMILES): C[C@@H]1[C@H]2[C@H]3C(=O)C=C4[C@@]5(C)C=C(C#N)C(=O)C(C)(C)[C@@H]5CC[C@@]4(C)[C@]3(C)CC[C@@]2(n2cccn2)CC[C@H]1C [Compound T64]
- EC (2-fold) [1, 5]: 64 ± 7.6 nM
- Relative Avg AREc32 EC2X Relative to RTA402 (fold) ([1]; Table 2): 6.07 ± 0.87 fold
- IC50 [2, 6]: 35.8 ± 6.1 nM
- Avg NO IC50 Relative to RTA402 (fold) [2]: 14.80 ± 8.92 fold

Structure (SMILES): C[C@@H]1[C@H]2[C@H]3C(=O)C=C4[C@@]5(C)C=C(C#N)C(=O)C(C)(C)[C@@H]5CC[C@@]4(C)[C@]3(C)CC[C@@]2(C(=O)NO)CC[C@H]1C [Compound T72]
- EC (2-fold) [1, 5]: 17.2 ± 7 nM
- Relative Avg AREc32 EC2X Relative to RTA402 (fold) ([1]; Table 2): 1.71 ± 0.33 fold
- IC50 [2, 6]: 36.1 ± 13.8 nM
- Avg NO IC50 Relative to RTA402 (fold) [2]: 20.20 ± 5.71 fold

Structure (SMILES): C[C@@H]1[C@H]2[C@H]3C(=O)C=C4[C@@]5(C)C=C(C#N)C(=O)C(C)(C)[C@@H]5CC[C@@]4(C)[C@]3(C)CC[C@@]2(CN)CC[C@H]1C [Compound T21]
- EC (2-fold) [1, 5]: 14.7 ± 1.3 nM
- EC (2-fold) [1, 7]: 14.7 ± 1.3 nM
- Relative Avg AREc32 EC2X Relative to RTA402 (fold) ([1]; Table 2): 1.27 ± 0.045 fold
- IC50 [2, 6]: 26 ± 7.6 nM
- IC50 [2, 8]: 26 ± 7.6 nM
- Avg NO IC50 Relative to RTA402 (fold) [2]: 10.9 ± 1.6 fold

Structure (SMILES): CCNC(=O)N[C@]12CC[C@@H](C)[C@H](C)[C@H]1[C@H]1C(=O)C=C3[C@@]4(C)C=C(C#N)C(=O)C(C)(C)[C@@H]4CC[C@@]3(C)[C@]1(C)CC2 [Compound T65]
- EC (2-fold) [1, 5]: 12.9 ± 2 nM
- Relative Avg AREc32 EC2X Relative to RTA402 (fold) ([1]; Table 2): 1.14 ± 0.20 fold
- IC50 [2, 6]: 25.5 ± 4.1 nM
- Avg NO IC50 Relative to RTA402 (fold) [2]: 7.42 ± 3.56 fold

Structure (SMILES): C[C@@H]1[C@H]2[C@H]3C(=O)C[C@@H]4[C@@]5(C)C=C(C#N)C(=O)C(C)(C)[C@@H]5CC[C@@]4(C)[C@]3(C)CC[C@@]2(CNC(=O)OC(C)(C)C)CC[C@H]1C [Compound T106]
- EC (2-fold) [1, 5]: 265 ± 21 nM
- Relative Avg AREc32 EC2X Relative to RTA402 (fold) ([1]; Table 2): 28.2 ± 4.5 fold
- IC50 [2, 6]: 57.4 ± 15.7 nM
- Avg NO IC50 Relative to RTA402 (fold) [2]: 37.4 ± 3.76 fold

Structure (SMILES): C[C@@H]1[C@H]2[C@H]3C(=O)C=C4[C@@]5(C)C=C(C#N)C(=O)C(C)(C)[C@@H]5CC[C@@]4(C)[C@]3(C)CC[C@@]2(N2CCOC2=O)CC[C@H]1C [Compound T59]
- EC (2-fold) [1, 5]: 15.4 ± 1.2 nM
- EC (2-fold) [1, 7]: 15.4 ± 1.2 nM
- Relative Avg AREc32 EC2X Relative to RTA402 (fold) ([1]; Table 2): 1.23 ± 0.26 fold
- IC50 [2, 6]: 16 ± 5 nM
- IC50 [2, 8]: 16 ± 5 nM
- Avg NO IC50 Relative to RTA402 (fold) [2]: 5.03 ± 1.61 fold

Structure (SMILES): CC1(C)CC[C@]2(CNC(=O)OC(C)(C)C)CC[C@]3(C)[C@H](C(=O)C=C4[C@@]5(C)C=C(C#N)C(=O)C(C)(C)[C@@H]5CC[C@]43C)[C@@H]2C1 [CC20, reference compound]
- EC (2-fold) [1, 3]: 21.1 nM
- IC50 [2, 4]: 5 nM

Structure (SMILES): CCC(=O)NC[C@]12CCC(C)(C)C[C@H]1[C@H]1C(=O)C=C3[C@@]4(C)C=C(C#N)C(=O)C(C)(C)[C@@H]4CC[C@@]3(C)[C@]1(C)CC2 [CC23, reference compound]
- EC (2-fold) [1, 3]: 2.37 nM
- IC50 [2, 4]: 0.4 nM

Structure (SMILES): C[C@@H]1[C@H]2[C@H]3C(=O)C=C4[C@@]5(C)C=C(C#N)C(=O)C(C)(C)[C@@H]5CC[C@@]4(C)[C@]3(C)CC[C@@]2(CNC(=O)N2CCC2)CC[C@H]1C [Compound T27]
- EC (2-fold) [1, 5]: 1.62 ± 0.22 nM
- Relative Avg AREc32 EC2X Relative to RTA402 (fold) ([1]; Table 2): 0.144 ± 0.008 fold
- IC50 [2, 6]: 4.03 ± 1.66 nM
- Avg NO IC50 Relative to RTA402 (fold) [2]: 1.15 ± 0.40 fold

Structure (SMILES): C[C@@H]1[C@H]2[C@H]3C(=O)C=C4[C@@]5(C)C=C(C#N)C(=O)C(C)(C)[C@@H]5CC[C@@]4(C)[C@]3(C)CC[C@@]2(c2nc(CO)no2)CC[C@H]1C [Compound T10]
- EC (2-fold) [1, 5]: 2.4 ± 0.3 nM
- EC (2-fold) [1, 7]: 2.4 ± 0.3 nM
- Relative Avg AREc32 EC2X Relative to RTA402 (fold) ([1]; Table 2): 0.193 ± 0.024 fold
- IC50 [2, 6]: 2.08 ± 0.14 nM
- IC50 [2, 8]: 2.08 ± 0.14 nM
- Avg NO IC50 Relative to RTA402 (fold) [2]: 1.45 ± 0.28 fold

Structure (SMILES): CC1(C)CC[C@]2(N3CCC3=O)CC[C@]3(C)[C@H](C(=O)C=C4[C@@]5(C)C=C(C#N)C(=O)C(C)(C)[C@@H]5CC[C@]43C)[C@@H]2C1 [CC74, reference compound]
- EC (2-fold) [1, 3]: 36.1 nM
- IC50 [2, 4]: 4.3 nM

Structure (SMILES): COCCc1noc([C@]23CC[C@@H](C)[C@H](C)[C@H]2[C@H]2C(=O)C=C4[C@@]5(C)C=C(C#N)C(=O)C(C)(C)[C@@H]5CC[C@@]4(C)[C@]2(C)CC3)n1 [Compound T7]
- EC (2-fold) [1, 5]: 6.16 ± 0.7 nM
- Relative Avg AREc32 EC2X Relative to RTA402 (fold) ([1]; Table 2): 0.595 ± 0.079 fold
- IC50 [2, 6]: 3.65 ± 1.87 nM
- Avg NO IC50 Relative to RTA402 (fold) [2]: 1.62 ± 0.54 fold

Structure (SMILES): CC1(C)CC[C@]2(CN3CCOC3=O)CC[C@]3(C)[C@H](C(=O)C=C4[C@@]5(C)C=C(C#N)C(=O)C(C)(C)[C@@H]5CC[C@]43C)[C@@H]2C1 [CC41, reference compound]
- EC (2-fold) [1, 3]: 5.12 nM
- IC50 [2, 4]: 1.7 nM

Structure (SMILES): CCC(=O)NC[C@]12CC[C@@H](C)[C@H](C)[C@H]1[C@H]1C(=O)C=C3[C@@]4(C)C=C(C#N)C(=O)C(C)(C)[C@@H]4CC[C@@]3(C)[C@]1(C)CC2 [Compound T23]
- EC (2-fold) [1, 5]: 1.89 ± 0.91 nM
- EC (2-fold) [1, 7]: 1.89 ± 0.91 nM
- Relative Avg AREc32 EC2X Relative to RTA402 (fold) ([1]; Table 2): 0.166 ± 0.071 fold
- IC50 [2, 6]: 3.07 ± 1.43 nM
- IC50 [2, 8]: 3.07 ± 1.43 nM
- Avg NO IC50 Relative to RTA402 (fold) [2]: 0.80 ± 0.13 fold

Structure (SMILES): CNC(=O)CC[C@]12CC[C@@H](C)[C@H](C)[C@H]1[C@H]1C(=O)C=C3[C@@]4(C)C=C(C#N)C(=O)C(C)(C)[C@@H]4CC[C@@]3(C)[C@]1(C)CC2 [Compound T78]
- EC (2-fold) [1, 5]: 2.33 ± 0.78 nM
- Relative Avg AREc32 EC2X Relative to RTA402 (fold) ([1]; Table 2): 0.194 ± 0.058 fold
- IC50 [2, 6]: 2.43 ± 0.95 nM
- Avg NO IC50 Relative to RTA402 (fold) [2]: 0.683 ± 0.093 fold
